Assay results reported in PubChem BioAssay AID1963873 (Molecular Pharmacology Branch, DTP, NCI, 2024).

System: 276233-004-R-J1-PDC KRAS spheroids with HUVEC/MSC, viability
Test: Anticancer human tumor 276233-004-R-J1-PDC patient-derived colon adenocarcinoma cell line growth inhibition [KRAS2]
Conditions: for IC50: curve of first compound; for viability, T/C: stronger effect = lower value
Source text: Multicellular complex tumor spheroid response to RAS pathway inhibitors in combination with a targeted agents in patient-derived cell lines with oncogenic KRAS variants from multiple cancer types
A high-throughput screen of multi-cell type tumor spheroids was designed to identify active combinations of targeted small molecules and KRAS pathway inhibitors. Complex spheroids include a stromal component modeled by human endothelial cells (HUVEC) and fibroblasts modeled by human mesenchymal stem cells (MSCs). The concentration ranges selected for each drug and investigational agent were based upon clinically achievable concentrations if the clinical Cmax of the agent was known.
Compounds. The drugs and investigational agents: BI-3406 (NSC825286), BAY-293 (NSC824723), batoprotafib (TNO155; NSC825523), sotorasib (AMG 510; NSC818433), MRTX1257 (NSC819558), elimusertib (BAY 1895344; NSC800525), molibresib (GSK525762; NSC774829), temuterkib (LY3214996; NSC803410), venetoclax (NSC766270), alisertib (NSC759677), olaparib (NSC753686), talazoparib (NSC767125), erdafitinib (NSC781556), ipatasertib (NSC767898), cabozantinib (NSC761068), nintedanib (NSC756659), abemaciclib (NSC768073), docetaxel (NSC628503), trametinib (NSC758246), and sapanisertib (NSC764658) were obtained from the National Cancer Institute (NCI) Developmental Therapeutics Program Chemical Repository. The FDA-approved anticancer drug set is available from the Developmental Therapeutics Program. […] The stock solutions were prepared in dimethyl sulfoxide (DMSO, Sigma-Aldrich, St. Louis, MO, cat. D2650) at 800-fold the tested concentration and stored at -70 degrees C prior to their use. All drugs and investigational agents were tested over a range starting from a high concentration at or near the clinical Cmax and decreasing in half-log increments. If the clinical Cmax for an agent had not been determined, the highest concentration tested was 10 microM.
Cell Culture. All cells were maintained in an incubator at 37 degrees C and 5% CO2 with 95% humidity. The PDC lines were cultured according to standard operating procedures established by the NCI PDMR (https://pdmr.cancer.gov/sops/default.htm). Briefly, all PDCs were thawed and cultured in Matrigel-coated flasks prepared with a working solution of 1X Ham's F-12 nutrient mix, without supplementation (Invitrogen, Waltham, MA, cat. 11765054), 100 U/mL penicillin-streptomycin (Invitrogen, cat. 15140122), and 2.5% Matrigel (Corning Inc., Corning, NY, cat. 354248) for the first three passages. All PDCs were cultured in complete DMEM/F-12 media containing advanced DMEM/F-12 (Invitrogen, cat. 12634028), 4.9% defined fetal bovine serum, heat inactivated (HyClone Laboratories Inc., Logan, UT, cat. SH30070.03HI), 389 ng/mL hydrocortisone (Sigma-Aldrich, cat. H4001), 9.7 ng/mL human EGF recombinant protein (Invitrogen, cat. PHG0313), 23.4 microg/mL adenine (Sigma-Aldrich, cat. A2786), 97.3 U/mL penicillin-streptomycin (Invitrogen, cat. 15140122), 1.9 mM L-glutamine (Invitrogen, cat. 25030081), and 9.7 microM Y-27632 dihydrochloride (Tocris Bioscience, Bristol, United Kingdom, cat. 1254). The PDCs were cultured in complete DMEM/F12 media without 9.7 microM Y-27632 dihydrochloride for at least two passages prior to the screen. The established cell line HOP-62 was cultured in RPMI 1640 medium, HEPES (Invitrogen, cat. 22400105) with 10% defined fetal bovine serum (HyClone Laboratories Inc., cat. SH30070.03) and 2 mM L-glutamine (Invitrogen, cat. 25030081). The pooled donor HUVEC were cultured in endothelial cell growth medium 2 (PromoCell, Heidelberg, Germany, cat. C-22011) and the hMSC were cultured in mesenchymal stem cell growth medium 2 (PromoCell, cat. C-28009). For all experiments, HUVEC and hMSC were used at passages </=5, while the malignant cell lines were used at passages </=15. […]

[1] = second compound 0.1 µM, first compound 0.0316 µM
[2] = second compound 0.1 µM, first compound 0.1 µM
[3] = second compound 0.1 µM, first compound 0.316 µM
[4] = second compound 0.1 µM, first compound 1 µM
[5] = second compound 0.1 µM, first compound 3.16 µM
[6] = second compound 0.1 µM, first compound 10 µM
[7] = second compound 0.316 µM, first compound 0.0316 µM
[8] = second compound 0.316 µM, first compound 0.1 µM
[9] = second compound 0.316 µM, first compound 0.316 µM
[10] = second compound 0.316 µM, first compound 1 µM
[11] = second compound 0.316 µM, first compound 3.16 µM
[12] = second compound 0.316 µM, first compound 10 µM
[13] = second compound 1 µM, first compound 0.0316 µM
[14] = second compound 1 µM, first compound 0.1 µM
[15] = second compound 1 µM, first compound 0.316 µM
[16] = second compound 1 µM, first compound 1 µM
[17] = second compound 1 µM, first compound 3.16 µM
[18] = second compound 1 µM, first compound 10 µM
[19] = second compound 3.16 µM, first compound 0.0316 µM
[20] = second compound 3.16 µM, first compound 0.1 µM
[21] = second compound 3.16 µM, first compound 0.316 µM
[22] = second compound 3.16 µM, first compound 1 µM
[23] = second compound 3.16 µM, first compound 3.16 µM
[24] = second compound 3.16 µM, first compound 10 µM
[25] = second compound 10 µM, first compound 0.0316 µM
[26] = second compound 10 µM, first compound 0.1 µM
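Also: cells exposed to agents for seven days before viability read.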
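For viability, T/C in this document: 100% = DMSO vehicle control wells and lower values mean fewer viable cells.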

Structure (SMILES): CCNC(=O)CC1N=C(c2ccc(Cl)cc2)c2cc(OC)ccc2-n2c(C)nnc21 (stereo not given) + C=CC(=O)N1CCN(c2nc(OCC3CCCN3C)nc3c2CCN(c2cccc4cccc(C)c24)C3)CC1CC#N
- IC50 (second compound 0.0316 µM): > 10 µM
- IC50 (second compound 0.1 µM): > 10 µM
- IC50 (second compound 0.316 µM): > 10 µM
- IC50 (second compound 1 µM): > 10 µM
- IC50 (second compound 3.16 µM): 0.189 µM
- viability, T/C (second compound 0.0316 µM, first compound 0.0316 µM): 94.8%
- viability, T/C (second compound 0.0316 µM, first compound 0.1 µM): 80.9%
- viability, T/C (second compound 0.0316 µM, first compound 0.316 µM): 63.6%
- viability, T/C (second compound 0.0316 µM, first compound 1 µM): 57.1%
- viability, T/C (second compound 0.0316 µM, first compound 3.16 µM): 68.6%
- viability, T/C (second compound 0.0316 µM, first compound 10 µM): 62%
- viability, T/C [1]: 95.1%
- viability, T/C [2]: 81.2%
- viability, T/C [3]: 85.6%
- viability, T/C [4]: 60.2%
- viability, T/C [5]: 59.5%
- viability, T/C [6]: 62.3%
- viability, T/C [7]: 94.8%
- viability, T/C [8]: 83.1%
- viability, T/C [9]: 83.3%
- viability, T/C [10]: 76.2%
- viability, T/C [11]: 65.4%
- viability, T/C [12]: 63.6%
- viability, T/C [13]: 80.5%
- viability, T/C [14]: 66.1%
- viability, T/C [15]: 56.2%
- viability, T/C [16]: 57.6%
- viability, T/C [17]: 56.6%
- viability, T/C [18]: 61.2%
- viability, T/C [19]: 60.3%
- viability, T/C [20]: 59.8%
- viability, T/C [21]: 42%
- viability, T/C [22]: 33.7%
- viability, T/C [23]: 36.4%
- viability, T/C [24]: 38.7%

Structure (SMILES): CC1(C)CCC(CN2CCN(c3ccc(C(=O)NS(=O)(=O)c4ccc(NCC5CCOCC5)c([N+](=O)[O-])c4)c(Oc4cnc5[nH]ccc5c4)c3)CC2)=C(c2ccc(Cl)cc2)C1 + C=CC(=O)N1CCN(c2nc(=O)n(-c3c(C)ccnc3C(C)C)c3nc(-c4c(O)cccc4F)c(F)cc23)C(C)C1
- IC50 (second compound 0.1 µM): 8.94 µM
- IC50 (second compound 0.316 µM): 9.58 µM
- IC50 (second compound 1 µM): 8.59 µM
- IC50 (second compound 3.16 µM): 9.15 µM
- IC50 (second compound 10 µM): > 10 µM
- viability, T/C [1]: 84.2%
- viability, T/C [2]: 105%
- viability, T/C [3]: 97.6%
- viability, T/C [4]: 93.6%
- viability, T/C [5]: 107%
- viability, T/C [6]: 44.9%
- viability, T/C [7]: 98.4%
- viability, T/C [8]: 108%
- viability, T/C [9]: 104%
- viability, T/C [10]: 105%
- viability, T/C [11]: 92.2%
- viability, T/C [12]: 47.9%
- viability, T/C [13]: 92.8%
- viability, T/C [14]: 108%
- viability, T/C [15]: 91.4%
- viability, T/C [16]: 109%
- viability, T/C [17]: 84.8%
- viability, T/C [18]: 44.7%
- viability, T/C [19]: 80.1%
- viability, T/C [20]: 96.9%
- viability, T/C [21]: 88.7%
- viability, T/C [22]: 102%
- viability, T/C [23]: 89.6%
- viability, T/C [24]: 46.5%
- viability, T/C [25]: 96.6%
- viability, T/C [26]: 73.2%
- viability, T/C (second compound 10 µM, first compound 0.316 µM): 69.3%
- viability, T/C (second compound 10 µM, first compound 1 µM): 84.2%
- viability, T/C (second compound 10 µM, first compound 3.16 µM): 81.1%
- viability, T/C (second compound 10 µM, first compound 10 µM): 57%

Structure (SMILES): CC(C)n1nc(-c2ccc3oc(N)nc3c2)c2c(N)ncnc21 + CNCc1ccccc1-c1csc(C(C)Nc2nc(C)nc3cc(OC)c(OC)cc23)c1
- IC50 (second compound 0.1 µM): 0.0428 µM
- IC50 (second compound 0.316 µM): 0.0901 µM
- IC50 (second compound 1 µM): 0.00683 µM
- IC50 (second compound 3.16 µM): < 0.000316 µM
- IC50 (second compound 10 µM): < 0.000316 µM
- viability, T/C (second compound 0.1 µM, first compound 0.000316 µM): 88.7%
- viability, T/C (second compound 0.1 µM, first compound 0.001 µM): 76.2%
- viability, T/C (second compound 0.1 µM, first compound 0.00316 µM): 66.1%
- viability, T/C (second compound 0.1 µM, first compound 0.01 µM): 59.5%
- viability, T/C [1]: 53.2%
- viability, T/C [2]: 44.4%
- viability, T/C (second compound 0.316 µM, first compound 0.000316 µM): 82.3%
- viability, T/C (second compound 0.316 µM, first compound 0.001 µM): 70.7%
- viability, T/C (second compound 0.316 µM, first compound 0.00316 µM): 66.2%
- viability, T/C (second compound 0.316 µM, first compound 0.01 µM): 55.5%
- viability, T/C [7]: 45%
- viability, T/C [8]: 54.5%
- viability, T/C (second compound 1 µM, first compound 0.000316 µM): 57.9%
- viability, T/C (second compound 1 µM, first compound 0.001 µM): 63.7%
- viability, T/C (second compound 1 µM, first compound 0.00316 µM): 60.5%
- viability, T/C (second compound 1 µM, first compound 0.01 µM): 39.6%
- viability, T/C [13]: 43.2%
- viability, T/C [14]: 51.6%
- viability, T/C (second compound 3.16 µM, first compound 0.000316 µM): 0.56%
- viability, T/C (second compound 3.16 µM, first compound 0.001 µM): 0.43%
- viability, T/C (second compound 3.16 µM, first compound 0.00316 µM): 0.72%
- viability, T/C (second compound 3.16 µM, first compound 0.01 µM): 0.43%
- viability, T/C [19]: 1.9%
- viability, T/C [20]: 0.88%
- viability, T/C (second compound 10 µM, first compound 0.000316 µM): 0.94%
- viability, T/C (second compound 10 µM, first compound 0.001 µM): 0.17%
- viability, T/C (second compound 10 µM, first compound 0.00316 µM): 1.02%
- viability, T/C (second compound 10 µM, first compound 0.01 µM): 0.26%
- viability, T/C [25]: 0.21%
- viability, T/C [26]: 0.37%
